From US20140155410A1 (GlaxoSmithKline LLC, priority 2008, published 2014)

Key:
GST-tagged FAK = target: T1, GST-tagged FAK (Homo sapiens, UniProt Q05397); assay: Biochemical assay for FAK activity, Assay 1: phosphorylation of peptide substrate with radio-labeled ATP; details: 5 μM ATP, 30 min pre-incubation, read-out: Assay 1 FAK TRF PXC50 (converted)
T1 construct: purchased Invitrogen PV3832
Procedure: GST-tagged (glutathione S-transferase-tagged) FAK was purchased from Invitrogen (PV3832) (www.invitrogen.com). […] To measure inhibitors of FAK, compounds were first prepared as a 10× stock in 10% DMSO. […] A 6-nM GST-FAK solution was prepared in 1.1× reaction buffer containing 44 mM HEPES, pH=7.2, 11 mM MgCl2, 2.2 mM MnCl2, 1.1 mM DTT and 0.011% Tween-20. Then, 20 μL of the 6 nM GST-FAK solution were pre-incubated with the compounds for 30 min at room temperature. […] The reaction was allowed to proceed for 90 min before being quenched with 40 μL of 1% H3PO4. A portion of the reaction mixture (60 μL) was transferred to a phospho-cellulose filter plate (Millipore; www.millipore.com, MAPHNOB50) and incubated for 20 minutes. The plate was filtrated, washed three times using 150 μL of 0.5% H3PO4 and dried at 50° C. for 30 min. After the addition of 60 μL Microscint-20 to the plate, radioactivity was measured using a TopCount (PerkinElmer; www.PerkinElmer.com).

[1] = target: T2, Full length Human FAK (Flag-His-TEV-FAK1) (Homo sapiens, UniProt Q05397); assay: Biochemical assay for FAK activity, Assay 2: LANCE Ultra ULight peptide phosphorylation, 665 nm/615 nm ratio; details: Flag-His-TEV-FAK1, 10 μM ATP, 30 min pre-incubation; read-out: Assay 2 FAK H 31284A TRF PXC50 (converted)
T2 construct: Full length Human FAK was expressed using baculovirus in Sf9 cells; made in house; host or cells: baculovirus in Sf9 cells
T2 sequence (Q05397 whole entry): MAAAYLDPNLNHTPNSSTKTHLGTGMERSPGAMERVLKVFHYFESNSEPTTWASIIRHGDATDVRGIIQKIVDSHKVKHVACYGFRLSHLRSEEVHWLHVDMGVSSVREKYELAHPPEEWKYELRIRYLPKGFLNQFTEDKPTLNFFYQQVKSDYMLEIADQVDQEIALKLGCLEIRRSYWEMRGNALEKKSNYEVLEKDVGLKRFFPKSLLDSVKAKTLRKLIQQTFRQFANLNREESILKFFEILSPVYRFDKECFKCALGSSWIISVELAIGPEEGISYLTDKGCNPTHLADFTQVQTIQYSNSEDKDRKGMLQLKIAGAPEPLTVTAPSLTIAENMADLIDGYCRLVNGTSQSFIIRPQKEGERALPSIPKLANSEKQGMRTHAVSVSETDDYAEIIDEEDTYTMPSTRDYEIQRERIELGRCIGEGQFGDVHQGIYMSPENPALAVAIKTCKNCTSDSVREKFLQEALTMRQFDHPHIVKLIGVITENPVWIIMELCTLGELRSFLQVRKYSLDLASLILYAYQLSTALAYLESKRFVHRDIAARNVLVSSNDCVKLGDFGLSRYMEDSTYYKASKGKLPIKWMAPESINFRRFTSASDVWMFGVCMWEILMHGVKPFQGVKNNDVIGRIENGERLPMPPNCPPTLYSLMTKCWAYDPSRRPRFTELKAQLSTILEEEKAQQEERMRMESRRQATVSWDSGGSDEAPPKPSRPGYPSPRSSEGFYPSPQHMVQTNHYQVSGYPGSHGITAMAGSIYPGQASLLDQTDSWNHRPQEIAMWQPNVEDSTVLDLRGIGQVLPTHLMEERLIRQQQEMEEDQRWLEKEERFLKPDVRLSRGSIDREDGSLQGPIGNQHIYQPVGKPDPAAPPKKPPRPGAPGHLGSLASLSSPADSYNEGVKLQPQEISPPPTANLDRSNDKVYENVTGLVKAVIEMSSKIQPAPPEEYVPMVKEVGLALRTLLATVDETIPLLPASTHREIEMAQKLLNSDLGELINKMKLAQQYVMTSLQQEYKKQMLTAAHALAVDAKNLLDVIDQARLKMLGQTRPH
Procedure: Flag-His-TEV-FAK1 was prepared in-house. Full length Human FAK was expressed using baculovirus in Sf9 cells with N-terminal FLAG-6×His tags followed by a TEV cleavage site (FLAG-6×His-TEV-huFAK). […] To measure inhibitors of FAK, compounds were first prepared as a 100× stock in 100% DMSO. […] After incubating for 120 minutes at room temperature, the reaction is quenched by adding 5 uL of 20 mM EDTA and 5nMEu-Anti-pTyr antibody in 1× LANCE detection buffer.

T1 sequence (Q05397 whole entry): as above

IC50 (GST-tagged FAK) [nM] | IC50 [1] [nM] | Structure (SMILES)
1 | 7.94 | CNC(=O)c1ccccc1Nc1cc(Nc2cc(C)nn2C)ncc1Cl [Example 5, 2-({5-Chloro-2-[(1,3-dimethyl-1H-pyrazol-5-yl)amino]-4-pyridinyl}amino)-N-methylbenzamide]
1.26 | 5.01 | CNC(=O)c1ccccc1Nc1cc(Nc2cc(C3CC3)nn2C)ncc1Cl [Example 6, 2-({5-Chloro-2-[(3-cyclopropyl-1-methyl-1H-pyrazol-5-yl)amino]-4-pyridinyl}amino)-N-methylbenzamide]
0.794 | 10 | CNC(=O)c1cc(F)ccc1Nc1cc(Nc2cc(C)nn2C)ncc1Cl [Example 7, 2-({5-Chloro-2-[(1,3-dimethyl-1H-pyrazol-5-yl)amino]-4-pyridinyl}amino)-5-fluoro-N-methylbenzamide]
0.631 | 5.01 | CNC(=O)c1cccc(F)c1Nc1cc(Nc2cc(C)nn2C)ncc1Cl [Example 8, 2-({5-Chloro-2-[(1,3-dimethyl-1H-pyrazol-5-yl)amino]-4-pyridinyl}amino)-3-fluoro-N-methylbenzamide]
1 | 6.31 | CNC(=O)c1cc(F)c(F)cc1Nc1cc(Nc2cc(C)nn2C)ncc1Cl [Example 9, 2-({5-Chloro-2-[(1,3-dimethyl-1H-pyrazol-5-yl)amino]-4-pyridinyl}amino)-4,5-difluoro-N-methylbenzamide]
2 | 6.31 | CNC(=O)c1cc(Cl)ccc1Nc1cc(Nc2cc(C)nn2C)ncc1Cl [Example 11, 5-Chloro-2-({5-chloro-2-[(1,3-dimethyl-1H-pyrazol-5-yl)amino]-4-pyridinyl}amino)-N-methylbenzamide]
2.51 | 5.01 | CCn1nccc1Nc1cc(Nc2ccc(Cl)cc2C(=O)NC)c(Cl)cn1 [Example 12, 5-Chloro-2-({5-chloro-2-[(1-ethyl-1H-pyrazol-5-yl)amino]-4-pyridinyl}amino)-N-methylbenzamide]
0.398 | 3.98 | CNC(=O)c1ccccc1Nc1cc(Nc2cn(C)nc2C)ncc1Cl [Example 26, 2-({5-Chloro-2-[(1,3-dimethyl-1H-pyrazol-4-yl)amino]-4-pyridinyl}amino)-N-methylbenzamide]
0.398 | 2.51 | CNC(=O)c1ccccc1Nc1cc(Nc2cc(C)nn2C)ncc1C(F)(F)F [Example 28, 2-{[2-[(1,3-Dimethyl-1H-pyrazol-5-yl)amino]-5-(trifluoromethyl)-4-pyridinyl]amino}-N-methylbenzamide]
0.501 | 2 | CCn1nccc1Nc1cc(Nc2ccccc2C(=O)NC)c(C(F)(F)F)cn1 [Example 29, 2-{[2-[(1-Ethyl-1H-pyrazol-5-yl)amino]-5-(trifluoromethyl)-4-pyridinyl]amino}-N-methylbenzamide]
0.398 | 1.58 | CNC(=O)c1ccccc1Nc1cc(Nc2cc(C)nn2C(C)C)ncc1C(F)(F)F [Example 30, N-Methyl-2-{[2-[(3-methyl-1-(1-methylethyl)-1H-pyrazol-5-yl]amino}-5-(trifluoromethyl)-4-pyridinyl]amino}benzamide]
0.398 | 1.58 | CONC(=O)c1ccccc1Nc1cc(Nc2cc(C)nn2C)ncc1Cl [Example 36, 2-({5-Chloro-2-[(1,3-dimethyl-1H-pyrazol-5-yl)amino]-4-pyridinyl}amino)-N-(methyloxy)benzamide]
251 | 1000 | Cc1cc(Nc2cc(Nc3ccccc3C(=O)NOCCN(C)C)c(Cl)cn2)n(C)n1 [Example 38, 2-({5-Chloro-2-[(1,3-dimethyl-1H-pyrazol-5-yl)amino]-4-pyridinyl}amino)-N-{[2-(dimethylamino)ethyl]oxy}benzamide]
0.398 | 5.01 | CCn1nc(C)cc1Nc1cc(Nc2ccccc2C(=O)NOC)c(Cl)cn1 [Example 39, 2-({5-Chloro-2-[(1-ethyl-3-methyl-1H-pyrazol-5-yl)amino]-4-pyridinyl}amino)-N-(methyloxy)benzamide]
1.26 | 2.51 | CCn1nccc1Nc1cc(Nc2ccccc2C(=O)NOC)c(Cl)cn1 [Example 40, 2-({5-Chloro-2-[(1-ethyl-1H-pyrazol-5-yl)amino]-4-pyridinyl}amino)-N-(methyloxy)benzamide]
0.398 | 2 | CONC(=O)c1ccccc1Nc1cc(Nc2cc(C)nn2C(C)C)ncc1Cl [Example 41, 2-[(5-Chloro-2-{[3-methyl-1-(1-methylethyl)-1H-pyrazol-5-yl]amino}-4-pyridinyl)amino]-N-(methyloxy)benzamide]

Structure (SMILES) | IC50 (GST-tagged FAK) [nM] | IC50 [1] [nM]
CCn1nc(C)cc1Nc1cc(Nc2ccccc2C(=O)NC)c(Cl)cn1 [Example 13, 2-({5-Chloro-2-[(1-ethyl-3-methyl-1H-pyrazol-5-yl)amino]-4-pyridinyl}amino)-N-methylbenzamide] | 0.501 | 2
CNC(=O)c1ccccc1Nc1cc(Nc2cc(C(C)(C)C)nn2C)ncc1Cl [Example 14, 2-[(5-Chloro-2-{[3-(1,1-dimethylethyl)-1-methyl-1H-pyrazol-5-yl)amino]-4-pyridinyl}amino]-N-methylbenzamide] | 2.51 | 20
CCn1nc(CO)cc1Nc1cc(Nc2ccccc2C(=O)NC)c(Cl)cn1 [Example 15, 2-[(5-Chloro-2-{[1-ethyl-3-(hydroxymethyl)-1H-pyrazol-5-yl]amino}-4-pyridinyl)amino]-N-methylbenzamide] | 2.51 | 20
CNC(=O)c1ccccc1Nc1cc(Nc2cc(C)nn2CCO)ncc1Cl [Example 16, 2-[(5-Chloro-2-{[1-(2-hydroxyethyl)-3-methyl-1H-pyrazol-5-yl]amino}-4-pyridinyl)amino]-N-methylbenzamide] | 1.26 | 20
CCOC(=O)c1cc(Nc2cc(Nc3ccccc3C(=O)NC)c(Cl)cn2)n(CC)n1 [Example 17, Ethyl 5-{[5-chloro-4-({2-[(methylamino)carbonyl]phenyl}amino)-2-pyridinyl]amino}-1-ethyl-1H-pyrazole-3-carboxylate] | 1.26 | 39.8
CCn1nc(C(=O)NOC)cc1Nc1cc(Nc2ccccc2C(=O)NC)c(Cl)cn1 [Example 19, 5-{[5-Chloro-4-({2-[(methylamino)carbonyl]phenyl}amino)-2-pyridinyl]amino}-1-ethyl-N-(methyloxy)-1H-pyrazole-3-carboxamide] | 5.01 | 63.1
CCn1nc(C(=O)NC)cc1Nc1cc(Nc2ccccc2C(=O)NC)c(Cl)cn1 [Example 20, 5-{[5-Chloro-4-({2-[(methylamino)carbonyl]phenyl}amino)-2-pyridinyl]amino}-1-ethyl-N-methyl-1H-pyrazole-3-carboxamide] | 10 | 39.8
CNC(=O)c1ccccc1Nc1cc(Nc2cc(C)nn2CC(F)(F)F)ncc1Cl [Example 21, 2-[(5-Chloro-2-{[3-methyl-1-(2,2,2-trifluoroethyl)-1H-pyrazol-5-yl]amino}-4-pyridinyl)amino]-N-methylbenzamide] | 3.16 | 63.1
CNC(=O)c1ccccc1Nc1cc(Nc2ccnn2C2CCN(C)CC2)ncc1Cl [Example 22, 2-[(5-Chloro-2-{[1-(1-methyl-4-piperidinyl)-1H-pyrazol-5-yl]amino}-4-pyridinyl)amino]-N-methylbenzamide] | 31.6 | 251
CNC(=O)c1ccccc1Nc1cc(Nc2cc(C)nn2CCN(C)C)ncc1Cl [Example 23, 2-{[5-Chloro-2-({1-[2-(dimethylamino)ethyl]-3-methyl-1H-pyrazol-5-yl}amino)-4-pyridinyl]amino}-N-methylbenzamide] | 79.4 | 200
CCn1nc(C(=O)NCCN(C)C)cc1Nc1cc(Nc2ccccc2C(=O)NC)c(Cl)cn1 [Example 24, 5-{[5-Chloro-4-({2-[(methylamino)carbonyl]phenyl}amino)-2-pyridinyl]amino}-N-[2-(dimethylamino)ethyl]-1-ethyl-1H-pyrazole-3-carboxamide] | 6.31 | 63.1
CCn1nc(C(=O)N(C)CCN(C)C)cc1Nc1cc(Nc2ccccc2C(=O)NC)c(Cl)cn1 [Example 25, 5-{[5-Chloro-4-({2-[(methylamino)carbonyl]phenyl}amino)-2-pyridinyl]amino}-N-[2-(dimethylamino)ethyl]-1-ethyl-N-methyl-1H-pyrazole-3-carboxamide] | 2.51 | 31.6
CCn1nc(C)cc1Nc1cc(Nc2ccccc2C(=O)NC)c(C(F)(F)F)cn1 [Example 32, 2-{[2-[(1-Ethyl-3-methyl-1H-pyrazol-5-yl)amino]-5-(trifluoromethyl)-4-pyridinyl]amino}-N-methylbenzamide] | 0.398 | 1
